Source: ChEMBL document CHEMBL3885881, “DrugMatrix”

Species on record: Rattus norvegicus
Type: toxicity, organism-based, Sprague-Dawley
Conditions: in vivo, po, route oral GAVAGE, […]; for ABSOLUTE EOSINOPHIL / ABSOLUTE LYMPHOCYTE / ABSOLUTE MONOCYTE / ABSOLUTE SEGMENTED NEUTROPHIL / BASOPHIL / EOSINOPHIL / ERYTHROCYTE COUNT / HEMATOCRIT / HEMOGLOBIN / LEUKOCYTE COUNT / LYMPHOCYTE / MEAN CORPUSCULAR HEMOGLOBIN / MEAN CORPUSCULAR HEMOGLOBIN CONCENTRATION / MEAN CORPUSCULAR VOLUME / MONOCYTE / NEUTROPHIL / NUCLEATED RED BLOOD CELLS / PLATELET COUNT: tissue Blood; for ALANINE AMINOTRANSFERASE / ALBUMIN / ALKALINE PHOSPHATASE / ASPARTATE AMINOTRANSFERASE / BLOOD UREA NITROGEN / CARBON DIOXIDE / CHLORIDE / CHOLESTEROL / CREATINE PHOSPHOKINASE / CREATININE / GLUCOSE / LACTATE DEHYDROGENASE / LIPASE / PHOSPHORUS / POTASSIUM / SODIUM / TOTAL BILIRUBIN / TOTAL PROTEIN / URIC ACID: tissue Plasma
[1] = 0 mg/kg, 6 h, vehicle control, dose level Control, time 0.25 day
[2] = 0 mg/kg, 24 h, vehicle control, dose level Control, time 1 day
[3] = 100 mg/kg, 6 h, dose level Low, time 0.25 day
[4] = 100 mg/kg, 24 h, dose level Low, time 1 day

Description: DrugMatrix - Regimen: Single

CC(C)(Oc1ccc(CCNC(=O)c2ccc(Cl)cc2)cc1)C(=O)O [BEZAFIBRATE]
ABSOLUTE EOSINOPHIL [1]: 0 CELLS/uL
ABSOLUTE LYMPHOCYTE [1]: 8631 CELLS/uL
ABSOLUTE MONOCYTE [1]: 171.17 CELLS/uL
ABSOLUTE SEGMENTED NEUTROPHIL [1]: 1214.5 CELLS/uL
BASOPHIL [1]: 0%
EOSINOPHIL [1]: 0%
ERYTHROCYTE COUNT [1]: 5.42 x10E6/uL
HEMATOCRIT [1]: 34.7%
HEMOGLOBIN [1]: 13.67 G/DL
LEUKOCYTE COUNT [1]: 10.02 x10E3/uL
LYMPHOCYTE [1]: 86.17%
MEAN CORPUSCULAR HEMOGLOBIN [1]: 25.27 pg
MEAN CORPUSCULAR HEMOGLOBIN CONCENTRATION [1]: 39.42 G/DL
MEAN CORPUSCULAR VOLUME [1]: 64.12 fL
MONOCYTE [1]: 1.67%
NEUTROPHIL [1]: 12.17%
NUCLEATED RED BLOOD CELLS [1]: 0 /100WBC
PLATELET COUNT [1]: 1050 x10E3/uL
ALANINE AMINOTRANSFERASE [1]: 61 u/L
ALBUMIN [1]: 4.67 G/DL
ALKALINE PHOSPHATASE [1]: 312.5 u/L
ASPARTATE AMINOTRANSFERASE [1]: 117.5 u/L
BLOOD UREA NITROGEN [1]: 8.67 mg/dL
CARBON DIOXIDE [1]: 26.33 mmol/L
CHLORIDE [1]: 100.5 MEQ/L
CHOLESTEROL [1]: 72 mg/dL
CREATINE PHOSPHOKINASE [1]: 283.33 u/L
CREATININE [1]: 0.28 mg/dL
GLUCOSE [1]: 172 mg/dL
LACTATE DEHYDROGENASE [1]: 95.33 u/L
LIPASE [1]: 10.17 u/L
PHOSPHORUS [1]: 9.9 mg/dL
POTASSIUM [1]: 5.75 MEQ/L
SODIUM [1]: 142.4 MEQ/L
TOTAL BILIRUBIN [1]: 0.3 mg/dL
TOTAL PROTEIN [1]: 5.43 G/DL
URIC ACID [1]: 0.73 mg/dL
ABSOLUTE EOSINOPHIL [2]: 90.83 CELLS/uL
ABSOLUTE LYMPHOCYTE [2]: 14725.17 CELLS/uL
ABSOLUTE MONOCYTE [2]: 220 CELLS/uL
ABSOLUTE SEGMENTED NEUTROPHIL [2]: 1080.67 CELLS/uL
BASOPHIL [2]: 0%
EOSINOPHIL [2]: 0.67%
ERYTHROCYTE COUNT [2]: 5.3 x10E6/uL
HEMATOCRIT [2]: 33.4%
HEMOGLOBIN [2]: 13.4 G/DL
LEUKOCYTE COUNT [2]: 16.12 x10E3/uL
LYMPHOCYTE [2]: 91.17%
MEAN CORPUSCULAR HEMOGLOBIN [2]: 25.3 pg
MEAN CORPUSCULAR HEMOGLOBIN CONCENTRATION [2]: 40.12 G/DL
MEAN CORPUSCULAR VOLUME [2]: 63.05 fL
MONOCYTE [2]: 1.5%
NEUTROPHIL [2]: 6.67%
NUCLEATED RED BLOOD CELLS [2]: 0 /100WBC
PLATELET COUNT [2]: 1062 x10E3/uL
ALANINE AMINOTRANSFERASE [2]: 69 u/L
ALBUMIN [2]: 4.33 G/DL
ALKALINE PHOSPHATASE [2]: 269 u/L
ASPARTATE AMINOTRANSFERASE [2]: 83.67 u/L
BLOOD UREA NITROGEN [2]: 14 mg/dL
CARBON DIOXIDE [2]: 29 mmol/L
CHLORIDE [2]: 100.83 MEQ/L
CHOLESTEROL [2]: 66.67 mg/dL
CREATINE PHOSPHOKINASE [2]: 355 u/L
CREATININE [2]: 0.18 mg/dL
GLUCOSE [2]: 161.33 mg/dL
LACTATE DEHYDROGENASE [2]: 123.33 u/L
LIPASE [2]: 10.67 u/L
PHOSPHORUS [2]: 8.83 mg/dL
POTASSIUM [2]: 6.06 MEQ/L
SODIUM [2]: 142.45 MEQ/L
TOTAL BILIRUBIN [2]: 0.2 mg/dL
TOTAL PROTEIN [2]: 5.72 G/DL
URIC ACID [2]: 1.27 mg/dL
ABSOLUTE EOSINOPHIL [3]: 94.83 CELLS/uL
ABSOLUTE LYMPHOCYTE [3]: 14637.67 CELLS/uL
ABSOLUTE MONOCYTE [3]: 333.5 CELLS/uL
ABSOLUTE SEGMENTED NEUTROPHIL [3]: 1884 CELLS/uL
BASOPHIL [3]: 0%
EOSINOPHIL [3]: 0.5%
ERYTHROCYTE COUNT [3]: 5.71 x10E6/uL
HEMATOCRIT [3]: 36.27%
HEMOGLOBIN [3]: 14.22 G/DL
LEUKOCYTE COUNT [3]: 16.95 x10E3/uL
LYMPHOCYTE [3]: 86.67%
MEAN CORPUSCULAR HEMOGLOBIN [3]: 24.97 pg
MEAN CORPUSCULAR HEMOGLOBIN CONCENTRATION [3]: 39.22 G/DL
MEAN CORPUSCULAR VOLUME [3]: 63.68 fL
MONOCYTE [3]: 2%
NEUTROPHIL [3]: 10.83%
NUCLEATED RED BLOOD CELLS [3]: 0 /100WBC
PLATELET COUNT [3]: 1045.83 x10E3/uL
ALANINE AMINOTRANSFERASE [3]: 67.33 u/L
ALBUMIN [3]: 4.53 G/DL
ALKALINE PHOSPHATASE [3]: 339 u/L
ASPARTATE AMINOTRANSFERASE [3]: 90 u/L
BLOOD UREA NITROGEN [3]: 8.17 mg/dL
CARBON DIOXIDE [3]: 18.33 mmol/L
CHLORIDE [3]: 102.17 MEQ/L
CHOLESTEROL [3]: 75.5 mg/dL
CREATINE PHOSPHOKINASE [3]: 329.33 u/L
CREATININE [3]: 0.19 mg/dL
GLUCOSE [3]: 163 mg/dL
LACTATE DEHYDROGENASE [3]: 253 u/L
LIPASE [3]: 10.17 u/L
PHOSPHORUS [3]: 12.57 mg/dL
POTASSIUM [3]: 5.78 MEQ/L
SODIUM [3]: 143.17 MEQ/L
TOTAL BILIRUBIN [3]: 0.32 mg/dL
TOTAL PROTEIN [3]: 6.1 G/DL
URIC ACID [3]: 1.68 mg/dL
ABSOLUTE EOSINOPHIL [4]: 44 CELLS/uL
ABSOLUTE LYMPHOCYTE [4]: 13234.17 CELLS/uL
ABSOLUTE MONOCYTE [4]: 357.67 CELLS/uL
ABSOLUTE SEGMENTED NEUTROPHIL [4]: 1847.5 CELLS/uL
BASOPHIL [4]: 0%
EOSINOPHIL [4]: 0.33%
ERYTHROCYTE COUNT [4]: 5.35 x10E6/uL
HEMATOCRIT [4]: 34.67%
HEMOGLOBIN [4]: 13.47 G/DL
LEUKOCYTE COUNT [4]: 15.48 x10E3/uL
LYMPHOCYTE [4]: 85%
MEAN CORPUSCULAR HEMOGLOBIN [4]: 25.28 pg
MEAN CORPUSCULAR HEMOGLOBIN CONCENTRATION [4]: 38.95 G/DL
MEAN CORPUSCULAR VOLUME [4]: 64.9 fL
MONOCYTE [4]: 2.33%
NEUTROPHIL [4]: 12.33%
NUCLEATED RED BLOOD CELLS [4]: 0.17 /100WBC
PLATELET COUNT [4]: 977.33 x10E3/uL
ALANINE AMINOTRANSFERASE [4]: 83.17 u/L
ALBUMIN [4]: 4.5 G/DL
ALKALINE PHOSPHATASE [4]: 333 u/L
ASPARTATE AMINOTRANSFERASE [4]: 86.33 u/L
BLOOD UREA NITROGEN [4]: 13 mg/dL
CARBON DIOXIDE [4]: 28.83 mmol/L
CHLORIDE [4]: 101.67 MEQ/L
CHOLESTEROL [4]: 43.5 mg/dL
CREATINE PHOSPHOKINASE [4]: 192.33 u/L
CREATININE [4]: 0.21 mg/dL
GLUCOSE [4]: 143.33 mg/dL
LACTATE DEHYDROGENASE [4]: 106.5 u/L
LIPASE [4]: 10.17 u/L
PHOSPHORUS [4]: 9.88 mg/dL
POTASSIUM [4]: 6.29 MEQ/L
SODIUM [4]: 146.55 MEQ/L
TOTAL BILIRUBIN [4]: 0.17 mg/dL
TOTAL PROTEIN [4]: 5.77 G/DL
URIC ACID [4]: 1.02 mg/dL
